Experimental data as given in PubChem BioAssay (NCI).
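Cultured in 96-well plates, cells were exposed to test compound for 48 hours across five concentrations. TGI marks complete inhibition of growth.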

Tests used:
Assay in all cases: DTP human tumour cell line panel, 48 h
SK-MEL-28 melanoma = test system: SK-MEL-28 melanoma
K-562 leukemia = test system: K-562 leukemia
HT29 colon = test system: HT29 colon
SW-620 colon = test system: SW-620 colon
786-0 renal = test system: 786-0 renal
XF 498 CNS = test system: XF 498 CNS
A549 NSCLC = test system: A549 NSCLC
SK-MEL-5 melanoma = test system: SK-MEL-5 melanoma
OVCAR-8 ovarian = test system: OVCAR-8 ovarian
M14 melanoma = test system: M14 melanoma
KM20L2 colon = test system: KM20L2 colon
TK-10 renal = test system: TK-10 renal
SF-539 CNS = test system: SF-539 CNS
SN12C renal = test system: SN12C renal
OVCAR-4 ovarian = test system: OVCAR-4 ovarian
HOP-62 NSCLC = test system: HOP-62 NSCLC
A498 renal = test system: A498 renal
KM12 colon = test system: KM12 colon
M19-MEL melanoma = test system: M19-MEL melanoma
ACHN renal = test system: ACHN renal
HCT-116 colon = test system: HCT-116 colon
SF-268 CNS = test system: SF-268 CNS
NCI-H23 lung = test system: NCI-H23 lung
DLD-1 colon = test system: DLD-1 colon
HCC-2998 colon = test system: HCC-2998 colon
CAKI-1 renal = test system: CAKI-1 renal
UACC-62 melanoma = test system: UACC-62 melanoma
UO-31 renal = test system: UO-31 renal
SR leukemia = test system: SR leukemia
MALME-3M melanoma = test system: MALME-3M melanoma
UACC-257 melanoma = test system: UACC-257 melanoma
SNB-19 CNS = test system: SNB-19 CNS
OVCAR-3 ovarian = test system: OVCAR-3 ovarian
SF-295 CNS = test system: SF-295 CNS
SNB-78 CNS = test system: SNB-78 CNS
DMS 273 small cell lung = test system: DMS 273 small cell lung
SK-OV-3 ovarian = test system: SK-OV-3 ovarian
MOLT-4 leukemia = test system: MOLT-4 leukemia
HL-60(TB) leukemia = test system: HL-60(TB) leukemia
NCI-H522 lung = test system: NCI-H522 lung
COLO 205 colon = test system: COLO 205 colon
U251 CNS = test system: U251 CNS
RXF 393 renal = test system: RXF 393 renal
SNB-75 CNS = test system: SNB-75 CNS
EKVX NSCLC = test system: EKVX NSCLC
RPMI-8226 leukemia = test system: RPMI-8226 leukemia
IGROV1 ovarian = test system: IGROV1 ovarian
OVCAR-5 ovarian = test system: OVCAR-5 ovarian
NCI-H226 lung = test system: NCI-H226 lung
HOP-92 NSCLC = test system: HOP-92 NSCLC
LXFL 529 NSCLC = test system: LXFL 529 NSCLC
NCI-H460 lung = test system: NCI-H460 lung
CCRF-CEM leukemia = test system: CCRF-CEM leukemia
DMS 114 small cell lung = test system: DMS 114 small cell lung
HCT-15 colon = test system: HCT-15 colon
LOX IMVI melanoma = test system: LOX IMVI melanoma

Measured: TGI

Cc1cc(NS(=O)(=O)c2ccc(NC(=O)COC(=O)c3cccc4c(=O)c5ccccc5[nH]c34)cc2)no1
> 100 µM: all assays above
